Data on five compounds can be found in patent US12281149B2, “Modulators of G-protein coupled receptors” (priority 2021, dated 2025).

*1 amine or outer side, *2 acyl side, *3 side chain or, on linkers, in order; H or OH if unused. Where a SMILES comes first, the peptide text is derived from it. Side-chain parts run from the residue outwards. [ ]: non-standard residue; d: D form. The star is where a group is joined. Isobutyryl(2-(3-CN-5-F-Ph)) = CC(C)(C(=O)*)c1cc(F)cc(C#N)c1; C20 diacid = O=C(O)CCCCCCCCCCCCCCCCCCC(=O)*; γGlu = O=C(O)[C@H](CCC(=O)[*:2])N[*:1]; X9 = CC(C)(C(=O)*)c1cc(F)cc(C(=O)O)c1; X25 = CC(C)(C(=O)*)n1cc(F)cn1; X6 = CC(C)(C(=O)*)c1ccccc1; AEEA = NCCOCCOCC(=O)O; Aib = CC(C)(N)C(=O)O; βAla = NCCC(=O)O Where only a bound is given, the exact number is not on record here.

Common to all, as to format: cell-based
Test [1] deals with T1, GIP receptor (Homo sapiens, UniProt P48546).
T1 sequence (P48546 22-466): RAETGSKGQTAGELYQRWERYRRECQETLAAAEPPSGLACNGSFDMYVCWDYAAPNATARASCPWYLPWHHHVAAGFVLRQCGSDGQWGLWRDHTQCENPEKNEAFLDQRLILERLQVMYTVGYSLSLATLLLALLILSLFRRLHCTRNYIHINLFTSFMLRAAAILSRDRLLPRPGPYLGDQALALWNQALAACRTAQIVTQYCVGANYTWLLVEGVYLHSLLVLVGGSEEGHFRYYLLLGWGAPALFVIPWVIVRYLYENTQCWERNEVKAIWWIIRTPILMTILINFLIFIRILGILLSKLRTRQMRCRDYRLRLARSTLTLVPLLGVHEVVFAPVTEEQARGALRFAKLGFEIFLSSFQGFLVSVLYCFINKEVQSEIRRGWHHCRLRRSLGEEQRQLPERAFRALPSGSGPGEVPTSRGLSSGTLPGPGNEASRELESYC
Put plainly: PathHunter β-arrestin assay, GIP receptor. Details: host or cells: PathHunter CHO-K1 GIPR β-Arrestin Cell Line. The note with it: β-arrestin-2 recruitment, PathHunter CHO-K1 GIPR β-Arrestin Cell Line, 90 min at 37° C.; normalized to GIP; read-out: GIPR β Arrestin EC50.

For test [2], the target named is T1, GIP receptor. Nature of the test: HitHunter cAMP assay, GIP receptor. The note with it: for EC50: CHO cells stably expressing GIP receptor, cAMP accumulation, 30 min, read-out: EC50 GIP-1R; for Emax: CHO cells, cAMP, normalized to maximum signal from GIP (high) and DMSO (low), read-out: Emax GIP-1R.
For test [3], the target named is T2, GLP-1 receptor (Homo sapiens, UniProt P43220). Put plainly: HitHunter cAMP assay, GLP-1 receptor. As to conditions: for EC50: CHO cells stably expressing human GLP-1 receptor, cAMP accumulation, 30 min, read-out: EC50 GLP-1R; for Emax: CHO cells, cAMP, normalized to maximum signal from GLP-1 (high) and DMSO (low), read-out: Emax GLP-1R.
T2 sequence (P43220 24-463): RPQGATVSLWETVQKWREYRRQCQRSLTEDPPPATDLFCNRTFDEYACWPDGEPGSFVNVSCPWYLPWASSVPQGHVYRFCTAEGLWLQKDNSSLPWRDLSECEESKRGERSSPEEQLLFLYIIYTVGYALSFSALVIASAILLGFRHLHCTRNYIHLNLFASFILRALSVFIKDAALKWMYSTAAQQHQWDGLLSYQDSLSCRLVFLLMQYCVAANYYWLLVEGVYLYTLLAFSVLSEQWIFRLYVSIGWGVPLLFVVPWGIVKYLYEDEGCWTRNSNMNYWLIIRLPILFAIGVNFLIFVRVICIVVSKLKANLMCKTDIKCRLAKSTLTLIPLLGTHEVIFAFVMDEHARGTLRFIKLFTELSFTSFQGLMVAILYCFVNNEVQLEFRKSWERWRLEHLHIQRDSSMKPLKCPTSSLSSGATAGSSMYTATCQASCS
The target in test [4] is T2, GLP-1 receptor. Put plainly: PathHunter β-arrestin assay, GLP-1 receptor. The note with it: β-arrestin-2 recruitment, PathHunter CHO-K1 GLP1R β-Arrestin Cell Line, 90 min at 37° C.; normalized to GLP-1; read-out: GLP-1R β Arrestin EC50. Details: host or cells: PathHunter CHO-K1 GLP1R β-Arrestin Cell Line.

On to `CC[C@H](C)[C@H](NC(=O)[C@H](CC(C)C)NC(=O)[C@H](Cc1c[nH]c2ccccc12)NC(=O)[C@H](CCC(N)=O)NC(=O)[C@@H](NC(=O)[C@H](Cc1ccccc1)NC(=O)[C@H](C)NC(=O)[C@H](CCCCNC(=O)COCCOCCNC(=O)COCCOCCNC(=O)CC[C@H](NC(=O)CCCCCCCCCCCCCCCCCCC(=O)O)C(=O)O)NC(=O)[C@H](CCC(N)=O)NC(=O)[C@H](C)NC(=O)[C@@H](NC(=O)[C@H](CCCCN)NC(=O)[C@H](CC(=O)O)NC(=O)[C@H](CC(C)C)NC(=O)C(C)(C)NC(=O)[C@@H](NC(=O)[C@H](CO)NC(=O)[C@H](Cc1ccc(O)cc1)NC(=O)[C@H](CC(=O)O)NC(=O)[C@H](CO)NC(=O)[C@@H](NC(=O)[C@H](Cc1ccccc1)NC(=O)[C@@H](NC(=O)CNC(=O)[C@H](CCC(=O)O)NC(=O)CCNC(=O)C(C)(C)n1cc(F)cn1)[C@@H](C)O)[C@@H](C)O)[C@@H](C)CC)[C@@H](C)CC)C(C)C)C(=O)N[C@@H](C)C(=O)NCC(=O)NCC(=O)N1CCC[C@H]1C(=O)N[C@@H](CO)C(=O)N[C@@H](CO)C(=O)NCC(=O)N[C@@H](C)C(=O)N1CCC[C@H]1C(=O)N1CCC[C@H]1C(=O)N1CCC[C@H]1C(=O)N[C@@H](CO)C(N)=O` [Compound 132] ({X25-βAla}-EGTFTSDYSI[Aib]LDKIAQK([AEEA-AEEA-γGlu-C20 diacid])AFVQWLIAGGPSSGAPPPS-NH2), for which the EC50 in test [1] was greater than 1000 nM; in test [2], 10 to 100 nM; in test [3] it was less than 0.1 nM; in test [4] it was less than 1000 nM. The Emax was determined as 104% in test [2] and 98% in test [3].

Consider `CC[C@H](C)[C@H](NC(=O)[C@H](CC(C)C)NC(=O)[C@H](Cc1c[nH]c2ccccc12)NC(=O)[C@H](CCC(N)=O)NC(=O)[C@@H](NC(=O)[C@H](Cc1ccccc1)NC(=O)[C@H](C)NC(=O)[C@H](CCCCNC(=O)COCCOCCNC(=O)COCCOCCNC(=O)CC[C@H](NC(=O)CCCCCCCCCCCCCCCCCCC(=O)O)C(=O)O)NC(=O)[C@H](CCC(N)=O)NC(=O)[C@H](C)NC(=O)[C@@H](NC(=O)[C@H](CCCCN)NC(=O)[C@H](CC(=O)O)NC(=O)[C@H](CC(C)C)NC(=O)C(C)(C)NC(=O)[C@@H](NC(=O)[C@H](CO)NC(=O)[C@H](Cc1ccc(O)cc1)NC(=O)[C@H](CC(=O)O)NC(=O)[C@H](CO)NC(=O)[C@@H](NC(=O)[C@H](Cc1ccccc1)NC(=O)[C@@H](NC(=O)CNC(=O)[C@H](CCC(=O)O)NC(=O)CCNC(=O)C(C)(C)c1cc(F)cc(C(=O)O)c1)[C@@H](C)O)[C@@H](C)O)[C@@H](C)CC)[C@@H](C)CC)C(C)C)C(=O)N[C@@H](C)C(=O)NCC(=O)NCC(=O)N1CCC[C@H]1C(=O)N[C@@H](CO)C(=O)N[C@@H](CO)C(=O)NCC(=O)N[C@@H](C)C(=O)N1CCC[C@H]1C(=O)N1CCC[C@H]1C(=O)N1CCC[C@H]1C(=O)N[C@@H](CO)C(N)=O` [Compound 139] ({X9-βAla}-EGTFTSDYSI[Aib]LDKIAQK([AEEA-AEEA-γGlu-C20 diacid])AFVQWLIAGGPSSGAPPPS-NH2), for which the EC50 in test [1] is greater than 1000 nM; in test [2], 10 to 100 nM; in test [3], 1 to 10 nM; in test [4], greater than 1000 nM. Further, the Emax in test [2] was found to be 109%; in test [3] it was 102%.

Consider `CC[C@H](C)[C@H](NC(=O)[C@H](CC(C)C)NC(=O)[C@H](Cc1c[nH]c2ccccc12)NC(=O)[C@H](CCC(N)=O)NC(=O)[C@@H](NC(=O)[C@H](Cc1ccccc1)NC(=O)[C@H](C)NC(=O)[C@H](CCCCNC(=O)COCCOCCNC(=O)COCCOCCNC(=O)CC[C@H](NC(=O)CCCCCCCCCCCCCCCCCCC(=O)O)C(=O)O)NC(=O)[C@H](CCC(N)=O)NC(=O)[C@H](C)NC(=O)[C@@H](NC(=O)[C@H](CCCCN)NC(=O)[C@H](CC(=O)O)NC(=O)[C@H](CC(C)C)NC(=O)C(C)(C)NC(=O)[C@@H](NC(=O)[C@H](CO)NC(=O)[C@H](Cc1ccc(O)cc1)NC(=O)[C@H](CC(=O)O)NC(=O)[C@H](CO)NC(=O)[C@@H](NC(=O)[C@H](Cc1ccccc1)NC(=O)[C@@H](NC(=O)CNC(=O)[C@H](CCC(=O)O)NC(=O)CCNC(=O)C(C)(C)c1ccccc1)[C@@H](C)O)[C@@H](C)O)[C@@H](C)CC)[C@@H](C)CC)C(C)C)C(=O)N[C@@H](C)C(=O)NCC(=O)NCC(=O)N1CCC[C@H]1C(=O)N[C@@H](CO)C(=O)N[C@@H](CO)C(=O)NCC(=O)N[C@@H](C)C(=O)N1CCC[C@H]1C(=O)N1CCC[C@H]1C(=O)N1CCC[C@H]1C(=O)N[C@@H](CO)C(N)=O` [Compound 241] ({X6-βAla}-EGTFTSDYSI[Aib]LDKIAQK([AEEA-AEEA-γGlu-C20 diacid])AFVQWLIAGGPSSGAPPPS-NH2), for which the EC50 in test [1] was less than 1000 nM; in test [2] it was 1 to 10 nM; in test [3], 0.1 to 1 nM; in test [4] it was less than 1000 nM. The Emax came to 100% in test [2] and 95% in test [3].

For `CC[C@H](C)[C@H](NC(=O)[C@H](CO)NC(=O)[C@H](Cc1ccc(O)cc1)NC(=O)[C@H](CC(=O)O)NC(=O)[C@H](CO)NC(=O)[C@@H](NC(=O)[C@H](Cc1ccccc1)NC(=O)[C@@H](NC(=O)CNC(=O)[C@H](CCC(=O)O)NC(=O)CCNC(=O)C1(c2ccc(F)cc2F)CCCC1)[C@@H](C)O)[C@@H](C)O)C(=O)N[C@@H](Cc1ccc(O)cc1)C(=O)N[C@@H](CC(C)C)C(=O)N[C@@H](CC(=O)O)C(=O)N[C@@H](CCCCN)C(=O)N[C@@H](CCC(N)=O)C(=O)N[C@@H](C)C(=O)N[C@@H](C)C(=O)NC(C)(C)C(=O)N[C@@H](CCC(=O)O)C(=O)N[C@@H](Cc1ccccc1)C(=O)N[C@H](C(=O)N[C@@H](CC(N)=O)C(=O)N[C@@H](Cc1c[nH]c2ccccc12)C(=O)N[C@@H](CC(C)C)C(=O)N[C@@H](CC(C)C)C(=O)N[C@@H](C)C(=O)NCC(=O)NCC(=O)N1CCC[C@H]1C(=O)N[C@@H](CO)C(=O)N[C@@H](CO)C(=O)NCC(=O)N[C@@H](C)C(=O)N1CCC[C@H]1C(=O)N1CCC[C@H]1C(=O)N1CCC[C@H]1C(=O)N[C@@H](CO)C(=O)N[C@@H](CCCCNC(=O)COCCOCCNC(=O)COCCOCCNC(=O)CC[C@H](NC(=O)CCCCCCCCCCCCCCCCCCC(=O)O)C(=O)O)C(N)=O)C(C)C` [Compound 145], the EC50 in test [1] is greater than 1000 nM; in test [2] it was 1 to 10 nM; in test [3], 1 to 10 nM; in test [4], greater than 1000 nM. In addition, the Emax in test [2] was found to be 102%; in test [3], 97%.

For the compound `CC[C@H](C)[C@H](NC(=O)[C@H](CC(C)C)NC(=O)[C@H](Cc1c[nH]c2ccccc12)NC(=O)[C@H](CCC(N)=O)NC(=O)[C@@H](NC(=O)[C@H](Cc1ccccc1)NC(=O)[C@H](C)NC(=O)[C@H](CCCCNC(=O)COCCOCCNC(=O)COCCOCCNC(=O)CC[C@H](NC(=O)CCCCCCCCCCCCCCCCCCC(=O)O)C(=O)O)NC(=O)[C@H](CCC(N)=O)NC(=O)[C@H](C)NC(=O)[C@@H](NC(=O)[C@H](CCCCN)NC(=O)[C@H](CC(=O)O)NC(=O)[C@H](CC(C)C)NC(=O)C(C)(C)NC(=O)[C@@H](NC(=O)[C@H](CO)NC(=O)[C@H](Cc1ccc(O)cc1)NC(=O)[C@H](CC(=O)O)NC(=O)[C@H](CO)NC(=O)[C@@H](NC(=O)[C@H](Cc1ccccc1)NC(=O)[C@@H](NC(=O)CNC(=O)[C@H](CCC(=O)O)NC(=O)CCNC(=O)C(C)(C)c1cc(F)cc(C#N)c1)[C@@H](C)O)[C@@H](C)O)[C@@H](C)CC)[C@@H](C)CC)C(C)C)C(=O)N[C@@H](C)C(=O)NCC(=O)NCC(=O)N1CCC[C@H]1C(=O)N[C@@H](CO)C(=O)N[C@@H](CO)C(=O)NCC(=O)N[C@@H](C)C(=O)N1CCC[C@H]1C(=O)N1CCC[C@H]1C(=O)N1CCC[C@H]1C(=O)N[C@@H](CO)C(=O)O` [Compound 169] ({Isobutyryl(2-(3-CN-5-F-Ph))-βAla}-EGTFTSDYSI[Aib]LDKIAQK([AEEA-AEEA-γGlu-C20 diacid])AFVQWLIAGGPSSGAPPPS-OH), the EC50 in test [1] was less than 1000 nM; in test [2], 1 to 10 nM; in test [3] it was 0.1 to 1 nM; in test [4], greater than 1000 nM. Moreover, the Emax worked out at 110% in test [2] and 108% in test [3].
